In publication PMC10215302 (Antibiotics, 2023):
Values after ≈ are worked out from the molar mass of the structure shown. Like-named read-outs stand apart in the source and are kept apart here.

How the values were obtained:
Assay in all cases: microbe, parasite or virus in culture
Details in all cases: Staphylococcus aureus
S. aureus SA0077 = test system: S. aureus SA0077
S. aureus SA0422 = test system: S. aureus SA0422
S. aureus SA0085 = test system: S. aureus SA0085
S. aureus ATCC 29213 = test system: S. aureus ATCC 29213
S. aureus SA0736 = test system: S. aureus SA0736
[1] = SA0422, read-out: MIC values, Table S1: SA0422 DAP (derivative after 40 passages on daptomycin)
[2] = SA0422, read-out: MIC values, Table S1: SA0422 VAN (derivative after 40 passages on vancomycin)
[3] = SA0085, read-out: MIC values, Table S1: SA0085 VAN (derivative after 40 passages on vancomycin)
[4] = ATCC29213, read-out: MIC values
[5] = SA0736, read-out: MIC values, Table S1: SA0736 VAN (derivative after 40 passages on vancomycin)
[6] = ATCC29213, read-out: MIC values, Table S1: ATCC 29213 DAP (derivative after 40 passages on daptomycin)

SMILES | MIC (S. aureus SA0077; SA0077, read-out: MIC values) [µg/mL] | MIC (S. aureus SA0077; SA0077, read-out: MIC values, Table S1: SA0077 Abf (passages on antibiotic-free media)) [µg/mL] | MIC (S. aureus SA0077; SA0077, read-out: MIC values, Table S1: SA0077 VAN (derivative after 40 passages on vancomycin)) [µg/mL] | MIC (S. aureus SA0422; SA0422, read-out: MIC values) [µg/mL] | MIC (S. aureus SA0422; [1]) [µg/mL] | MIC (S. aureus SA0422; [2]) [µg/mL] | MIC (S. aureus SA0085; SA0085, read-out: MIC values) [µg/mL] | MIC (S. aureus SA0085; [3]) [µg/mL] | MIC (S. aureus ATCC 29213; [4]) [µg/mL] | MIC (S. aureus SA0736; SA0736, read-out: MIC values) [µg/mL] | MIC (S. aureus SA0736; SA0736, read-out: MIC values, Table S1: SA0736 DAP-W (40 passages on daptomycin, white colonies)) [µg/mL] | MIC (S. aureus SA0736; SA0736, read-out: MIC values, Table S1: SA0736 DAP-Y (40 passages on daptomycin, yellow colonies)) [µg/mL] | MIC (S. aureus SA0736; [5]) [µg/mL] | MIC (S. aureus ATCC 29213; [6]) [µg/mL] | MIC (S. aureus ATCC 29213; ATCC29213, read-out: MIC values, Table S1: ATCC 29213 VAN (derivative after 40 passages on vancomycin)) [µg/mL]
O=C(O)c1cn(C2CC2)c2cc(N3CCNCC3)c(F)cc2c1=O [Ciprofloxacin] | 16 (≈ 48.3 µM) | 32 (≈ 96.6 µM) | 64 (≈ 193 µM) | 128 (≈ 386 µM) | 32 (≈ 96.6 µM) | 64 (≈ 193 µM) | 256 (≈ 773 µM) | 32 (≈ 96.6 µM) | 0.25 (≈ 0.754 µM) | 128 (≈ 386 µM) | 64 (≈ 193 µM) | 32 (≈ 96.6 µM) | 16 (≈ 48.3 µM) |  | 
CCC[C@@H]1C[C@@H](C(=O)N[C@@H]([C@H]2O[C@H](SC)[C@H](O)[C@@H](O)[C@H]2O)[C@H](C)Cl)N(C)C1 [Clindamycin] | > 64 |  |  | 0.06 (≈ 0.141 µM) |  |  | > 64 |  | 0.06 (≈ 0.141 µM) | 0.06 (≈ 0.141 µM) |  |  |  |  | 
CC[C@H]1OC(=O)[C@H](C)[C@@H](O[C@H]2C[C@@](C)(OC)[C@@H](O)[C@H](C)O2)[C@H](C)[C@@H](O[C@@H]2O[C@H](C)C[C@H](N(C)C)[C@H]2O)[C@](C)(O)C[C@@H](C)C(=O)[C@H](C)[C@@H](O)[C@]1(C)O [Erythromycin] | > 128 |  |  | 0.125 (≈ 0.17 µM) |  | 0.5 (≈ 0.681 µM) | > 128 |  | 0.25 (≈ 0.341 µM) | 0.125 (≈ 0.17 µM) |  |  | 0.5 (≈ 0.681 µM) | 0.125 (≈ 0.17 µM) | 0.5 (≈ 0.681 µM)
CC(=O)O[C@H]1C[C@@]2(C)[C@@H](C[C@@H](O)[C@H]3[C@@]4(C)CC[C@@H](O)[C@@H](C)[C@@H]4CC[C@@]32C)/C1=C(\CCC=C(C)C)C(=O)O [Fusidic acid] | 0.06 (≈ 0.116 µM) |  |  | 0.125 (≈ 0.242 µM) | 0.06 (≈ 0.116 µM) | 0.06 (≈ 0.116 µM) | 0.125 (≈ 0.242 µM) |  | 0.25 (≈ 0.484 µM) | 0.06 (≈ 0.116 µM) |  |  | 0.125 (≈ 0.242 µM) | 0.125 (≈ 0.242 µM) | 
CNC(C)C1CCC(N)C(OC2C(N)CC(N)C(OC3OCC(C)(O)C(NC)C3O)C2O)O1 (stereo not drawn) [Gentamicin] | > 128 |  |  | > 128 |  |  | > 128 |  | 1 (≈ 2.09 µM) | > 128 |  |  |  | 0.25 (≈ 0.523 µM) | 
CC(=O)NC[C@H]1CN(c2ccc(N3CCOCC3)c(F)c2)C(=O)O1 [Linezolid] | 1 (≈ 2.96 µM) |  |  | 2 (≈ 5.93 µM) | 1 (≈ 2.96 µM) |  | 4 (≈ 11.9 µM) | 1 (≈ 2.96 µM) | 2 (≈ 5.93 µM) | 1 (≈ 2.96 µM) |  |  | 2 (≈ 5.93 µM) | 1 (≈ 2.96 µM) | 
